Test results as given in US6747049B2, “Oxazole derivatives” (Hoffmann-La Roche Inc., priority 2002, dated 2004).

Legend:
PPARγ [1] = molecular target: T1, PPARγ (Mus musculus, UniProt P37238); assay: PPARγ radioligand binding assay (scintillation proximity, GST-PPARγ-LBD); settings: SPA beads
T1 construct: made in house; host or cells: E. coli BL21(pLysS)
T1 sequence (P37238 204-505): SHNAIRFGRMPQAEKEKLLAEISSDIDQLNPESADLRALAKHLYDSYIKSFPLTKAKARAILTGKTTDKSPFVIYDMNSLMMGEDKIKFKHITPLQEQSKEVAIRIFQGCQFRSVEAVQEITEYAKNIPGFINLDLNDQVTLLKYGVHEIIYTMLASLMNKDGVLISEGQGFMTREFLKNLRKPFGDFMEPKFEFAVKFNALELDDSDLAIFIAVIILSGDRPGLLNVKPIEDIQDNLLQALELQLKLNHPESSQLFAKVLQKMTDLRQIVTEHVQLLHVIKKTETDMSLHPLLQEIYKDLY
Source text: Background information on the performed assays can be found in: Nichols J S et al. “Development of a scintillation proximity assay for peroxisome proliferator-activated receptor gamma ligand binding domain”, (1998) Anal. Biochem. 257:112-119.
(§1) Full-length cDNA clones for human PPARα and mouse PPARγ were obtained by RT-PCR from human adipose and mouse liver cRNA, respectively, cloned into plasmid vectors and verified by DNA sequencing. Bacterial and mammalian expression vectors were constructed to produce glutathione-s-transferase (GST) and Gal4 DNA binding domain proteins fused to the ligand binding domains (LBD) of PPARγ (aa 174 to 476) and PPARα (aa 167 to 469). To accomplish this, the portions of the cloned sequences encoding the LBDs were amplified from the full-length clones by PCR and then subcloned into the plasmid vectors. Final clones were verified by DNA sequence analysis.
Induction, expression, and purification of GST-LBD fusion proteins were performed in E. coli strain BL21(pLysS) cells by standard methods (Ref: Current Protocols in Molecular Biology, Wiley Press, edited by Ausubel et al.).
Radioligand Binding Assay
PPARγ receptor binding was assayed in TKE50 (50 mM Tris-HCl, pH 8, 50 mM KCl, 2 mM EDTA, 0.1 mg/ml fatty acid-free BSA and 10 mM DTT). For each 96 well reaction an 140 ng equivalent of GST-PPARγ-LBD fusion protein was bound to 10 ug SPA beads (PharmaciaAmersham) in a final volume of 50 ul by shaking. The resulting slurry was incubated for 1 h at RT and centrifuged for 2 min at 1300 g. The supernatant containing unbound protein was removed and the semidry pellet containing the receptor-coated beads was resolved in 50 ul of TKE. For radioligand binding e.g. 10000 dpm 2(S)-(2-benzoyl-phenylamino)-3-{4-[1,1-ditritio-2-(5-methyl-2-phenyl-oxazol-4-yl)-ethoxy]-phenyl}-propionic acid in 50 ul were added, the reaction incubated at RT for 1 h and scintillation proximity counting performed. All binding assays were performed in 96 well plates and the amount of bound ligand measured on a Packard TopCount using OptiPlates (Packard). Nonspecific binding was determined in the presence of 10^−4 M unlabelled compound. Dose response curves were done in triplicates within a range of concentration from 10^−10 M to 10^−4 M.

PPARα = molecular target: T2, PPARα (Homo sapiens, UniProt Q07869); assay: Luciferase transcriptional reporter gene assay, pFA-PPARα-LBD in BHK21 cells; format: cell-based; settings: Gal4-PPARα-LBD luciferase reporter, 24 hours incubation
T2 construct: expressed in transfected cells; host or cells: BHK21 (ATCC CCL10)
T2 sequence (Q07869 167-468 limits assumed): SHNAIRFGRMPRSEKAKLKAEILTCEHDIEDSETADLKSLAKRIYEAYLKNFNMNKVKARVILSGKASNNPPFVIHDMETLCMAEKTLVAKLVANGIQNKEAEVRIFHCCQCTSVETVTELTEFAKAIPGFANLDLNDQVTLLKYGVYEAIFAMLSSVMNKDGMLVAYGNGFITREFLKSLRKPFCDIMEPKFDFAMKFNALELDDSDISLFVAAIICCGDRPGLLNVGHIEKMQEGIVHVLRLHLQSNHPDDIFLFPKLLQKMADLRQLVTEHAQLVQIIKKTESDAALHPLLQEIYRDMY
Source text: Full-length cDNA clones for human PPARα and mouse PPARγ were obtained by RT-PCR from human adipose and mouse liver cRNA, respectively, cloned into plasmid vectors and verified by DNA sequencing. […] To accomplish this, the portions of the cloned sequences encoding the LBDs were amplified from the full-length clones by PCR and then subcloned into the plasmid vectors. Final clones were verified by DNA sequence analysis.
(§2) Luciferase Transcriptional Reporter Gene Assays
(§3) Baby hamster kidney cells (BHK21 ATCC CCL10) were grown in DMEM medium containing 10% FBS at 37° C. in a 95%[…]:5%CO2 atmosphere. Cells were seeded in 6 well plates at a density of 10^5 Cells/well and then batch-transfected with either the pFA-PPARγ-LBD or pFA-PPARα-LBD expression plasmids plus the pFR-luc reporter plasmid and an expression plasmid encoding the secretable form of alkaline phosphatase (SEAP) as a normalization control. […] Six hours following transfection, the cells were harvested by trypsinization and seeded in 96 well plates at a density of 10^4 cells/well. After 24 hours to allow attachment of cells, the medium was removed and replaced with 100 ul of phenol red-free medium containing the test substances or control ligands (final. 0.1% DMSO). Following incubation of the cells for 24 hours with substances, 50 ul of the supernatant was recovered and analyzed for SEAP activity (Roche Molecular Biochemicals). The remainder of the supernatant was discarded, 50 ul PBS was added per well followed by one volume of Luciferase Constant-Light Reagent (Roche Molecular Biochemicals) to lyse the cells and initiate the luciferase reaction. Luminescence for both SEAP and luciferase was measured in a Packard TopCount. Luciferase activity was normalized to the SEAP control and transcriptional activation in the presence of a test substance was expressed as fold-activation over cells incubated in the absence of the substance. EC50 values were calculated using the XLfit program (ID Business Solutions Ltd. UK).

PPARγ [2] = molecular target: T3, PPARγ (Mus musculus, UniProt P37238); assay: Luciferase transcriptional reporter gene assay, pFA-PPARγ-LBD in BHK21 cells; format: cell-based; settings: Gal4-PPARγ-LBD luciferase reporter, 24 hours incubation
T3 construct: expressed in transfected cells; host or cells: BHK21 (ATCC CCL10)
T3 sequence (P37238 174-475 isoform P37238-2): T1 sequence (P37238 204-505)
Source text: as §1, §2, §3

| IC50 (PPARγ [1]) [µM] | EC50 (PPARα) [µM] | EC50 (PPARγ [2]) [µM] | SMILES |
| --- | --- | --- | --- |
| 0.93 | 2.7 | 1.32 | CCCN(Cc1ccccc1C(=O)O)c1ccc(OCCc2nc(-c3ccccc3)oc2C)cc1 [Example 6, 2-[({4-[2-(5-methyl-2-phenyl-oxazol-4-yl)-ethoxy]-phenyl}-propyl-amino)-methyl]-benzoic acid] |
| 1.08 | 2.59 | 2.32 | Cc1oc(-c2ccccc2)nc1CCOc1ccc(N(Cc2ccccc2C(=O)O)c2ccc(F)cc2)cc1 [Example 12, 2-[((4-fluoro-phenyl)-{4-[2-(5-methyl-2-phenyl-oxazol-4-yl)-ethoxy]-phenyl}-amino)-methyl]-benzoic acid] |
| 0.24 | 10 | 1.98 | Cc1oc(-c2ccccc2)nc1CCOc1ccc(N(Cc2c(F)cccc2C(=O)O)c2ccccc2)cc1 [Example 18, 3-fluoro-2-[({4-[2-(5-methyl-2-phenyl-oxazol-4-yl)-ethoxy]-phenyl}-phenyl-amino)-methyl]-benzoic acid] |
| 0.98 | 2.05 | 1.41 | COc1cccc(CN(c2ccccc2)c2ccc(OCCc3nc(-c4ccccc4)oc3C)cc2)c1C(=O)O [Example 26, 2-methoxy-6-[({4-[2-(5-methyl-2-phenyl-oxazol-4-yl)-ethoxy]-phenyl}-phenyl-amino)-methyl]-benzoic acid] |
